Source: patent US10011562B2, “Long-chain dimethylaniline derivative compounds, their preparation methods, self-assembled textures, and uses thereof” (WEST CHINA HOSPITAL, SICHUAN UNIVERSITY, priority 2014, dated 2018)
Structures can show the parent of a compound that is named as a salt.

How the values were obtained:
[1] = system: sciatic nerve of rats; test: Second local anesthetic experiment of rats: blocking of sciatic nerve, mechanical withdrawal threshold (VFH); type: in vivo; settings: 0.2 ml of formulated solution injected close to sciatic nerve, lidocaine 2% (84 mmol/L)
Procedure: (§1) The tested rats were placed on bench board and allowed to inhale 5% isoflurane. After body-righting reflex abolition, rats are allowed to continue inhaling 1.5% isoflurane, to keep anesthesia. Keeping left-lateral position, their corresponding injection area sacrococygeal region was shaved, then routine sterilization and draping were performed. Two osseous anatomic landmarks greater trochanter of femur and tuber is chiadicum were laid hands, and the middle point of this line was the needle insertion position. If skin was taut, 1 ml injector was inserted along perpendicular of skin. When needlepoint reached hucklebone, the insertion was finished. Once no blood return was found as suction, 0.2 ml drug solution was slowly injected. Needle was lifted, and is oflurane was shut off. Animals were placed in observation cage until they naturally awakened.
Rats were placed in transparent observation cages with a bottom of smooth metal sieve plate, and the corrected von frey filament was used to stimulate the foot lateral skin of rats (innervated region of sciatic nerve) from down to up. […] For each stimulation, slightly bent of filament was used as a standard, or rats moved aside this side of limbs. Otherwise, once the stimulation time reached 3 s, operator stopped stimulating. Three tests were carried out for each time point, and the interval between two tests was 5 min, to avoid sensibilization. […]

[2] = system: sciatic nerve of rats; test: First local anesthetic experiment of rats: blocking of sciatic nerve, mechanical withdrawal threshold (VFH, von Frey filaments); type: in vivo
Procedure: (§2) Selected above micelle, positive control lidocaine, and negative control normal saline were respectively administrated to 28 groups of test rats fully adapted to experiment environment, with five rats for each group. The administration dosage is: the concentration of lidocaine group being 2% aqueous solution (84 mmol/L), and the concentration of tested drug being 5 mmol/L. The injection volume of each rat receiving drugs or the control was 0.2 ml, and the drug or the control was injected to close to sciatic nerve of rats by guidance of nerve locator.
as §1, with “Once no blood return was found as suction, 0.2 ml drug solution was slowly injected.” left out
(§3) Rats were placed in transparent observation cages with a bottom of smooth metal sieve plate, and the corrected von frey filament was used to stimulate the foot lateral skin of rats (innervated region of sciatic nerve) from down to up. […] For each stimulation, slightly bent of filament was used as a standard, or rats moved aside this side of limbs. Otherwise, once the stimulation time reached 3 s, operator stopped stimulating. Three tests were carried out for each time point, and the interval between two tests was 5 min, to avoid sensibilization.
(§4) If the mechanical withdrawal threshold value was more than 60 g, the nerve blocking was considered as effective.

[3] = system: sciatic nerve of rats; test: Second local anesthetic experiment of rats: blocking of sciatic nerve, motor function (PET); type: in vivo; settings: 0.2 ml of formulated solution injected close to sciatic nerve, lidocaine 2% (84 mmol/L)
Procedure: as §1
The hindlimb postural extensor thrust (PET) was used for evaluation. Rats were lifted vertically and their hindlimbs of injection side stepped on the top of electronic balance. At this time, the postural extensor thrust was shown as the value of balance. When limbs were completely paralytic, the digital reading was the weight of limbs, about 20 g. […]

[4] = system: sciatic nerve of rats; test: Third local anesthetic experiment of rats: hydrogels embedded near the sciatic nerve, mechanical withdrawal threshold (VFH); type: in vivo
Procedure: as §3, §4
(§5) 25 mmol/L transparent uniform hydrogels of products obtained in Examples 7-10 and 13-32 were prepared under sterile conditions, as the method of Example 45, and kept for use.
(§6) Above hydrogels, positive control lidocaine, and negative control normal saline were respectively administrated to 35 groups of test rats fully adapted to experiment environment, with five rats for each group. The administration dosage is: the concentration of lidocaine group being 2% aqueous solution (84 mmol/L). The injection volume of each rat receiving drugs or the control was […], and the control was injected to near the sciatic nerve of rats by guidance of nerve locator; by surgery, the gels were embedded near the sciatic nerve of experimental rats after general anesthesia using sevoflurane. Specific procedures and the evaluation criterion for local anesthetic effect were same as mentioned in Example 60.

[5] = system: sciatic nerve of rats; test: First local anesthetic experiment of rats: blocking of sciatic nerve, motor function by hindlimb postural extensor thrust (PET); type: in vivo
Procedure: as §2
as §1, with “Once no blood return was found as suction, 0.2 ml drug solution was slowly injected.” left out
(§7) The hindlimb postural extensor thrust (PET) was used for evaluation. Rats were lifted vertically and their hindlimbs of injection side stepped on the top of electronic balance. At this time, the postural extensor thrust was shown as the value of balance. When limbs were completely paralytic, the digital reading was the weight of limbs, about 20 g. If the test value was more than half of the difference between the baseline and the limbs weight, the motor function was taken as recovery; If less than or equal to half of the difference, the motor function was taken as deprivation.
(§8) The interval between completion of injection and the time point that the motor function was firstly deprivated was the time of effective motor blocking; the interval between completion of injection and the time point that the motor function was firstly recovered was the time of ineffective motor blocking; their difference was the hold time of motor blocking.

[6] = system: sciatic nerve of rats; test: Third local anesthetic experiment of rats: hydrogels embedded near the sciatic nerve, motor function (PET); type: in vivo
Text: as §7, §8, §5, §6

[7] = system: Na+ channels; settings: with the addition of surface-active agent or with the help of forming micelles; cited from earlier work
[8] = rats, 0.2 ml injected close to sciatic nerve, tested drug 5 mmol/L solution (micelle), lidocaine 2% (84 mmol/L), threshold above 60 g
[9] = rats, 0.2 ml injected close to sciatic nerve, tested drug 5 mmol/L solution (micelle), lidocaine 2% aqueous solution (84 mmol/L)
[10] = rats, 25 mmol/L hydrogel, 0.2 g embedded by surgery near sciatic nerve, lidocaine 2% (84 mmol/L) injected
[11] = rats, 0.2 ml injected close to sciatic nerve, tested drug 5 mmol/L solution (micelle), lidocaine 2% (84 mmol/L)

SMILES: CCN(CC)CC(=O)Nc1c(C)cccc1C [2% lidocaine hydrochloride, lidocaine hydrochloride, reference compound]
- Effective local anesthetic time [1]: 1 min
- The hold time of sensation blocking [1]: 2 h
- The hold time of sensation blocking [2, 8]: 2 h
- Effective local anesthetic time [2, 9]: 1 min
- The hold time of motor blocking [3]: 2 h
- Effective local anesthetic time [4, 10]: 1 min
- The hold time of sensation blocking [4, 10]: 2 h
- The hold time of motor blocking [5, 11]: 2 h
- The hold time of motor blocking [6, 10]: 2 h

SMILES: CCCCCCCCOC(=O)OCC[N+](CC)(CC)CC(=O)Nc1c(C)cccc1C [Example17product]
- Effective local anesthetic time ([2]; rat, in vivo): 16 min
- The hold time of sensation blocking ([2]; rat, in vivo): 82 h
- Effective local anesthetic time ([4]; rat, in vivo): 63 min
- The hold time of sensation blocking ([4]; rat, in vivo): 85 h
- The hold time of motor blocking ([5]; rat, in vivo): 62 h
- The hold time of motor blocking ([6]; rat, in vivo): 82 h

SMILES: CCCCCCCCCOC(=O)OCC[N+](CC)(CC)CC(=O)Nc1c(C)cccc1C [Example18product]
- Effective local anesthetic time ([2]; rat, in vivo): 16 min
- The hold time of sensation blocking ([2]; rat, in vivo): 88 h
- Effective local anesthetic time ([4]; rat, in vivo): 60 min
- The hold time of sensation blocking ([4]; rat, in vivo): 83 h
- The hold time of motor blocking ([5]; rat, in vivo): 60 h
- The hold time of motor blocking ([6]; rat, in vivo): 79 h

SMILES: CCCCCCCCCOC(=O)OCC[N+](CC)(CC)CC(=O)Nc1c(C)cccc1C [Example19product]
- Effective local anesthetic time ([2]; rat, in vivo): 16 min
- The hold time of sensation blocking ([2]; rat, in vivo): 82 h
- Effective local anesthetic time ([4]; rat, in vivo): 65 min
- The hold time of sensation blocking ([4]; rat, in vivo): 90 h
- The hold time of motor blocking ([5]; rat, in vivo): 56 h
- The hold time of motor blocking ([6]; rat, in vivo): 88 h

SMILES: CCCCCCCCCOC(=O)OCC[N+](CC)(CC)CC(=O)Nc1c(C)cccc1C [Example21product]
- The hold time of sensation blocking [2, 8]: 82 h
- Effective local anesthetic time [2, 9]: 18 min
- Effective local anesthetic time [4, 10]: 75 min
- The hold time of sensation blocking [4, 10]: 88 h
- The hold time of motor blocking [5, 11]: 60 h
- The hold time of motor blocking [6, 10]: 79 h

SMILES: CCCCCCCCCOC(=O)OCC[N+](CC)(CC)CC(=O)Nc1c(C)cccc1C [Example22product]
- The hold time of sensation blocking [2, 8]: 81 h
- Effective local anesthetic time [2, 9]: 18 min
- Effective local anesthetic time [4, 10]: 78 min
- The hold time of sensation blocking [4, 10]: 95 h
- The hold time of motor blocking [5, 11]: 61 h
- The hold time of motor blocking [6, 10]: 87 h

SMILES: CCCCCCCCCCOC(=O)OCC[N+](CC)(CC)CC(=O)Nc1c(C)cccc1C [Example23product]
- Effective local anesthetic time ([2]; rat, in vivo): 20 min
- The hold time of sensation blocking ([2]; rat, in vivo): 82 h
- Effective local anesthetic time ([4]; rat, in vivo): 80 min
- The hold time of sensation blocking ([4]; rat, in vivo): 92 h
- The hold time of motor blocking ([5]; rat, in vivo): 62 h
- The hold time of motor blocking ([6]; rat, in vivo): 76 h

SMILES: CCCCCCCCCCOC(=O)OCC[N+](CC)(CC)CC(=O)Nc1c(C)cccc1C [Example24product]
- Effective local anesthetic time ([2]; rat, in vivo): 20 min
- The hold time of sensation blocking ([2]; rat, in vivo): 82 h
- Effective local anesthetic time ([4]; rat, in vivo): 78 min
- The hold time of sensation blocking ([4]; rat, in vivo): 87 h
- The hold time of motor blocking ([5]; rat, in vivo): 75 h
- The hold time of motor blocking ([6]; rat, in vivo): 79 h

SMILES: CCCCCCCCCCCOC(=O)OCC[N+](CC)(CC)CC(=O)Nc1c(C)cccc1C [Example25product]
- Effective local anesthetic time ([2]; rat, in vivo): 20 min
- The hold time of sensation blocking ([2]; rat, in vivo): 81 h
- Effective local anesthetic time ([4]; rat, in vivo): 82 min
- The hold time of sensation blocking ([4]; rat, in vivo): 83 h
- The hold time of motor blocking ([5]; rat, in vivo): 80 h
- The hold time of motor blocking ([6]; rat, in vivo): 79 h

SMILES: CCCCCCCCCCCCOC(=O)OCC[N+](CC)(CC)CC(=O)Nc1c(C)cccc1C [Example26product]
- Effective local anesthetic time ([2]; rat, in vivo): 20 min
- The hold time of sensation blocking ([2]; rat, in vivo): 80 h
- Effective local anesthetic time ([4]; rat, in vivo): 88 min
- The hold time of sensation blocking ([4]; rat, in vivo): 81 h
- The hold time of motor blocking ([5]; rat, in vivo): 80 h
- The hold time of motor blocking ([6]; rat, in vivo): 77 h

SMILES: CCCCCCCCCCCCOC(=O)OCC[N+](CC)(CC)CC(=O)Nc1c(C)cccc1C [Example27product]
- Effective local anesthetic time ([2]; rat, in vivo): 20 min
- The hold time of sensation blocking ([2]; rat, in vivo): 78 h
- Effective local anesthetic time ([4]; rat, in vivo): 90 min
- The hold time of sensation blocking ([4]; rat, in vivo): 83 h
- The hold time of motor blocking ([5]; rat, in vivo): 80 h
- The hold time of motor blocking ([6]; rat, in vivo): 76 h

SMILES: CCCCCCCCCCCCCCOC(=O)OCC[N+](CC)(CC)CC(=O)Nc1c(C)cccc1C [Example28product]
- Effective local anesthetic time ([2]; rat, in vivo): 20 min
- The hold time of sensation blocking ([2]; rat, in vivo): 76 h
- Effective local anesthetic time ([4]; rat, in vivo): 88 min
- The hold time of sensation blocking ([4]; rat, in vivo): 83 h
- The hold time of motor blocking ([5]; rat, in vivo): 79 h
- The hold time of motor blocking ([6]; rat, in vivo): 79 h

SMILES: CCCCCCCCCCCCCCCCOC(=O)OCC[N+](CC)(CC)CC(=O)Nc1c(C)cccc1C [Example29product]
- Effective local anesthetic time ([2]; rat, in vivo): 20 min
- The hold time of sensation blocking ([2]; rat, in vivo): 78 h
- Effective local anesthetic time ([4]; rat, in vivo): 92 min
- The hold time of sensation blocking ([4]; rat, in vivo): 86 h
- The hold time of motor blocking ([5]; rat, in vivo): 80 h
- The hold time of motor blocking ([6]; rat, in vivo): 84 h

SMILES: CCCCCCCCCCCCCCCCOC(=O)OCC[N+](CC)(CC)CC(=O)Nc1c(C)cccc1C [Example30product]
- Effective local anesthetic time ([2]; rat, in vivo): 19 min
- The hold time of sensation blocking ([2]; rat, in vivo): 74 h
- Effective local anesthetic time ([4]; rat, in vivo): 95 min
- The hold time of sensation blocking ([4]; rat, in vivo): 87 h
- The hold time of motor blocking ([5]; rat, in vivo): 78 h
- The hold time of motor blocking ([6]; rat, in vivo): 86 h

SMILES: CCCCCCCCCCCCCCCCCCOC(=O)OCC[N+](CC)(CC)CC(=O)Nc1c(C)cccc1C [Example31product]
- Effective local anesthetic time ([2]; rat, in vivo): 20 min
- The hold time of sensation blocking ([2]; rat, in vivo): 78 h
- Effective local anesthetic time ([4]; rat, in vivo): 92 min
- The hold time of sensation blocking ([4]; rat, in vivo): 83 h
- The hold time of motor blocking ([5]; rat, in vivo): 80 h
- The hold time of motor blocking ([6]; rat, in vivo): 78 h

SMILES: CC[N+](CC)(CC)CC(=O)Nc1c(C)cccc1C.[Br-] [QX314]
- local anesthetic actions lasting [7]: more than 8 hours
